Data reported in paper PMC5491903, “The Selective Phosphoinoside-3-Kinase p110δ Inhibitor IPI-3063 Potently Suppresses B Cell Survival, Proliferation, and Differentiation” (Frontiers in Immunology, 2017).
Where two headings read alike, the source gives them in different places.

What was measured:
[1] = target: T1, p110γ (Mus musculus, UniProt Q9JHG7); set-up: method as in PMID 16789742; details: read-out: biochemical IC50; cited from earlier work
[2] = tested on: LPS-stimulated mouse B cells; experiment: IgM secretion by ELISA; format: cell-based; details: supernatant after 3 days
Source text: We also evaluated plasmablast differentiation and IgM secretion in LPS-stimulated cells (Figure 5D). […] In cells treated with IPI-3063 or IPI-443, the highest concentrations inhibited plasmablast differentiation to the same degree as GDC-0941.
For cell culture ELISA to measure total IgM, supernatants from purified B cells stimulated with LPS were collected after 3 days and diluted 1:1,000 in 2% (wt/vol) BSA in PBS. Nunc Maxisorp plates (Thermo Fisher) were coated with anti-mouse IgM (RMM-1; BioLegend) at 10 µg/mL in 50 µL of total sample in PBS and allowed to incubate overnight at 4°C. Diluted supernatant samples were incubated on coated plates for 1 h at 37°C. HRP-conjugated rabbit anti-mouse IgM secondary antibody (Zymed) was used.

[3] = target: T2, p110δ (Homo sapiens, UniProt O00329); experiment: PI3K enzymatic assay (ADP-Glo) with purified enzymes; details: purified enzyme, mean ± spread (n), read-out: Biochemical IC50
T2 construct: heterodimers consisting of full length p110α, p110β, or p110δ catalytic subunit and the p85α regulatory subunit; purchased Millipore 14-604-K
Method: (§1) Human recombinant PI3K-α (cat. no. 14-602-K), -β (cat. no. 14-603-K), -δ (cat. no. 14-604-K), and -γ (cat. no. 14-558-K) were purchased from Millipore. Phosphatidylinositol 4,5 bis phosphate (diC8-PtdIns(4,5)P2) was purchased from Avanti Polar Lipids, Inc. PI3K-α, β, and δ are heterodimers consisting of full length p110α, p110β, or p110δ catalytic subunit and the p85α regulatory subunit. PI3K-γ is a monomer of the p110γ catalytic subunit. Samples of kinase (10 nM—α, β, and δ; 20 nM—γ) were incubated with inhibitor for 30 min at room temperature in reaction buffer (15 mM HEPES pH 7.4, 20 mM NaCl, 1 mM EGTA, 0.02% Tween 20, 10 mM MgCl2, 0.2 mg/mL bovine-γ-globulins) followed by addition of ATP/diC8-PtdIns(4,5)P2 mixture to give final concentrations of 3 mM ATP and 500 µM diC8-PtdIns(4,5)P2. Reactions were incubated at room temperature for 2 h, with PI3K activity assessed via the Promega ADP-Glo Max assay kit (cat. no. V7002) according to the manufacturer’s instruction. Plates were read on Envision plate reader in luminescence mode.

[4] = target: T3, p110α (Homo sapiens, UniProt P42336); experiment: as above; details: purified enzyme, mean ± spread (n), read-out: Biochemical IC50
T3 construct: heterodimers consisting of full length p110α, p110β, or p110δ catalytic subunit and the p85α regulatory subunit; purchased Millipore 14-602-K
Method: as §1

[5] = target: T4, p110γ (Homo sapiens, UniProt P48736); experiment: as above; details: purified enzyme, mean ± spread (n), read-out: Biochemical IC50
T4 construct: purchased Millipore 14-558-K
Method: as §1

[6] = target: T1, p110γ; experiment: isoform-specific cell-based assay, pAKT S473 ELISA; set-up: endogenous in cells; host or cells: Raw264.7; details: read-out: Cellular IC50
Method: Phospho-Akt1 (S473) sandwich ELISA antibody kit (Cell Signaling Technology, cat. no. 7143) was utilized to analyze pAKT signal in cells as described previously by Winkler et al. ([11]) (for data see Table 2). Briefly, SKOV3 and 786.0 cells were seeded into 96-well cell culture-graded plates at a density of […] per 200 µl culture media per well. Raji and Raw264.7 were seeded at the same density in FBS-free media. After overnight incubation at 5% CO2 and 37°C, the cells were treated with inhibitor for 30 min. Raji cells were stimulated with 10 µg/mL anti-human IgM (Jackson ImmunoResearch) for 30 min and Raw264.7 cells with 25 nM C5a (RnD Systems) for 3 min in the presence of inhibitor. SKOV3 and 786.0 cells were not stimulated. Medium was then aspirated and 50 µL/well of ice-cold lysis buffer was added. pAKT level was determined according to the manufacturer’s instruction.

T1 sequence (Q9JHG7 whole entry): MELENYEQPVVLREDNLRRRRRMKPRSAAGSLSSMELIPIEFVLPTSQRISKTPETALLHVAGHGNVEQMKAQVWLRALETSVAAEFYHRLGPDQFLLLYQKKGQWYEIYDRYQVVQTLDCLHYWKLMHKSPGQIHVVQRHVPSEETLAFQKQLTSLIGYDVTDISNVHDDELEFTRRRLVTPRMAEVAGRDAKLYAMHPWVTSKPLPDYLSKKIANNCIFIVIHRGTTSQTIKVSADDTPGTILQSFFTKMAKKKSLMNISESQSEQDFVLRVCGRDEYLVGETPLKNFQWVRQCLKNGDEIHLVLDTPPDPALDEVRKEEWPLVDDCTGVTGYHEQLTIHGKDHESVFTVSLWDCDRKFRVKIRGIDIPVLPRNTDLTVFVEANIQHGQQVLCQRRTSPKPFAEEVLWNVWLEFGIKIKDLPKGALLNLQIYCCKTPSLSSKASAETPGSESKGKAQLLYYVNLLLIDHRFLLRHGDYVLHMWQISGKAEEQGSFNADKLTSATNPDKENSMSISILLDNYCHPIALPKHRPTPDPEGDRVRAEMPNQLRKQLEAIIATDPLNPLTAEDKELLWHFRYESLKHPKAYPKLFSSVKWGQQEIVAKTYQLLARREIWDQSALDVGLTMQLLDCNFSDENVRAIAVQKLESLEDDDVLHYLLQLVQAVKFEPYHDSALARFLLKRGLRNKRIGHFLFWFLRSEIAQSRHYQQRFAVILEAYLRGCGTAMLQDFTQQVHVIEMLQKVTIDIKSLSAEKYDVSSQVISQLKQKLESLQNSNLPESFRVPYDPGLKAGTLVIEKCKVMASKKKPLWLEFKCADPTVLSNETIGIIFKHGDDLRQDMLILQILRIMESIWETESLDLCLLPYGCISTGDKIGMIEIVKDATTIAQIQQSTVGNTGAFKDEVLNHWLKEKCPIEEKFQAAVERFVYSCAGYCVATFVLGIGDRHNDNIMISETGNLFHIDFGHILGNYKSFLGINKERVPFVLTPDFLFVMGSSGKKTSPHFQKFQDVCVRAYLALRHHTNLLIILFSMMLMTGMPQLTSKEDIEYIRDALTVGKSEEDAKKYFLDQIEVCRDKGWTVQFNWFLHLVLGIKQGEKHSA
T2 sequence (O00329 whole entry): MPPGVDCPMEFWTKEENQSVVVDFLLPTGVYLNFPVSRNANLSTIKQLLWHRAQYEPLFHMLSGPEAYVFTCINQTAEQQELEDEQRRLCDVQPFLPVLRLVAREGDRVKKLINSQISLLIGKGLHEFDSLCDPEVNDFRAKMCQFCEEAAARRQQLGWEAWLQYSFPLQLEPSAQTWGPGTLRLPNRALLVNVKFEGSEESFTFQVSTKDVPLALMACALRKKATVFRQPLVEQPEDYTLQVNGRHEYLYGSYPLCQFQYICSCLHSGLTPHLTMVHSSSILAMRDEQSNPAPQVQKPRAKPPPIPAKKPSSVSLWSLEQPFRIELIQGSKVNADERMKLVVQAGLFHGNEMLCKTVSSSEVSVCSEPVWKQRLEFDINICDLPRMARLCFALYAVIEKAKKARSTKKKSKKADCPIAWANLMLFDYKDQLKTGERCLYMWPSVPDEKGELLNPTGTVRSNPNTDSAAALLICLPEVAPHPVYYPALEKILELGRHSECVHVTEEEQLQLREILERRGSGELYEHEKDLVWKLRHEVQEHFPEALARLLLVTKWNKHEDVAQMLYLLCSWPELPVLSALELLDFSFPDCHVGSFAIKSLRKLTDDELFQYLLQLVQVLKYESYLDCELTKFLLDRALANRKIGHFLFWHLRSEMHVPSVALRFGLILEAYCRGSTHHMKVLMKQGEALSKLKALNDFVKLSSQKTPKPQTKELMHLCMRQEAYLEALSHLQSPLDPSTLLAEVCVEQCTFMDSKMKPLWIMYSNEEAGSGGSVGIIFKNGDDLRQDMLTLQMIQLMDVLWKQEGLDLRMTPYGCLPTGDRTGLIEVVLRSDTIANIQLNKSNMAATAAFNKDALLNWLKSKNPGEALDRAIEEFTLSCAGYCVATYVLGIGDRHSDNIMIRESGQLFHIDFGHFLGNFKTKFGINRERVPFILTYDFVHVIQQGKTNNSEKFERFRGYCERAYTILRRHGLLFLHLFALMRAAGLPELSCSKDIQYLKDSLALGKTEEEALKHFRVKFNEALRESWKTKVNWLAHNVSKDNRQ
T2 sequence (P27986 whole entry partner): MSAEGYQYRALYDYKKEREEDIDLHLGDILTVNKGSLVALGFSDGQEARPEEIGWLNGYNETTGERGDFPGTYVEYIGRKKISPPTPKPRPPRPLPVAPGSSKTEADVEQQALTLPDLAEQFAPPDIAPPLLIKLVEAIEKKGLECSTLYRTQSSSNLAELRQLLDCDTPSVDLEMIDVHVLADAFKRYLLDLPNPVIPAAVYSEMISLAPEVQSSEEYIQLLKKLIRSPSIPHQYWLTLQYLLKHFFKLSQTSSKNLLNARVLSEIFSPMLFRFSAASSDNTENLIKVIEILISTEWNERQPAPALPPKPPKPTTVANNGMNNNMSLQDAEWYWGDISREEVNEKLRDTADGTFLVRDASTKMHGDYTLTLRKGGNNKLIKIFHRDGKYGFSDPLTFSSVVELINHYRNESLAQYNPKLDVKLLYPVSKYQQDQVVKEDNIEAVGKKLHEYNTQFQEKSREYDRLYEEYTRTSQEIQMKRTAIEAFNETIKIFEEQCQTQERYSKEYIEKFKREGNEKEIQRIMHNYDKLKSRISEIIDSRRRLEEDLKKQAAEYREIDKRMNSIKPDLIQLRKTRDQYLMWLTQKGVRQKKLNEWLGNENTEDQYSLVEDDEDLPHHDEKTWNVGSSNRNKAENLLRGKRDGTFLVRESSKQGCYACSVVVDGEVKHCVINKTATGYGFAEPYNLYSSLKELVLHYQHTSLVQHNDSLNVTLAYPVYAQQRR
T4 sequence (P48736 whole entry): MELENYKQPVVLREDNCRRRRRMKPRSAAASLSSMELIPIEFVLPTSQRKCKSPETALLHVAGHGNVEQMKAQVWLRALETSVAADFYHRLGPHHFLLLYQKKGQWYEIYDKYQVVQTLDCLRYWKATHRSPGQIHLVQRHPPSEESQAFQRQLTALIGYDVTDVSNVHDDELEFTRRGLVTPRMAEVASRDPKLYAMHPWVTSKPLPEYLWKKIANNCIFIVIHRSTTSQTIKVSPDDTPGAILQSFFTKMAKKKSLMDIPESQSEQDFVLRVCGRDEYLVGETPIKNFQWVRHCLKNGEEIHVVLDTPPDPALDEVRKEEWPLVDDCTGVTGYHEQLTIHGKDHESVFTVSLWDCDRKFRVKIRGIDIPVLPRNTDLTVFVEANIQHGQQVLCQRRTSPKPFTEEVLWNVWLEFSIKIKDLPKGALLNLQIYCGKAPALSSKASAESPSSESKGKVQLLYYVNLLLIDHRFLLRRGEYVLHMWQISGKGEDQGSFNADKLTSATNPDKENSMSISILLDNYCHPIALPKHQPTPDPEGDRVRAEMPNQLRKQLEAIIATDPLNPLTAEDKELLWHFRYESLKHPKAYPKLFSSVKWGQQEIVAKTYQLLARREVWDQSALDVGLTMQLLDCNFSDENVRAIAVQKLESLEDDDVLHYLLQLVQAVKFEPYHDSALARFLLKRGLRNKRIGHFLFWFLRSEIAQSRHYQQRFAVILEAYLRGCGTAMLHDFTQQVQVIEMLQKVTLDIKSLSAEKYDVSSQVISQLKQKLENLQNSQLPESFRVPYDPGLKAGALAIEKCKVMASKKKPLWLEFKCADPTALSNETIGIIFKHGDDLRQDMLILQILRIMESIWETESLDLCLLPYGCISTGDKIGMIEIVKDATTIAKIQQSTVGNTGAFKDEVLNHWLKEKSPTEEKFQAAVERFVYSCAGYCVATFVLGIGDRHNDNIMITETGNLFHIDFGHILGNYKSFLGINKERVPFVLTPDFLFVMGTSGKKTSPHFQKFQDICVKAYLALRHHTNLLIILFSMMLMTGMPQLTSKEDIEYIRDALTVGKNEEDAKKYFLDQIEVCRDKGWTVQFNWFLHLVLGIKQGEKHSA
T3 sequence (P42336 whole entry): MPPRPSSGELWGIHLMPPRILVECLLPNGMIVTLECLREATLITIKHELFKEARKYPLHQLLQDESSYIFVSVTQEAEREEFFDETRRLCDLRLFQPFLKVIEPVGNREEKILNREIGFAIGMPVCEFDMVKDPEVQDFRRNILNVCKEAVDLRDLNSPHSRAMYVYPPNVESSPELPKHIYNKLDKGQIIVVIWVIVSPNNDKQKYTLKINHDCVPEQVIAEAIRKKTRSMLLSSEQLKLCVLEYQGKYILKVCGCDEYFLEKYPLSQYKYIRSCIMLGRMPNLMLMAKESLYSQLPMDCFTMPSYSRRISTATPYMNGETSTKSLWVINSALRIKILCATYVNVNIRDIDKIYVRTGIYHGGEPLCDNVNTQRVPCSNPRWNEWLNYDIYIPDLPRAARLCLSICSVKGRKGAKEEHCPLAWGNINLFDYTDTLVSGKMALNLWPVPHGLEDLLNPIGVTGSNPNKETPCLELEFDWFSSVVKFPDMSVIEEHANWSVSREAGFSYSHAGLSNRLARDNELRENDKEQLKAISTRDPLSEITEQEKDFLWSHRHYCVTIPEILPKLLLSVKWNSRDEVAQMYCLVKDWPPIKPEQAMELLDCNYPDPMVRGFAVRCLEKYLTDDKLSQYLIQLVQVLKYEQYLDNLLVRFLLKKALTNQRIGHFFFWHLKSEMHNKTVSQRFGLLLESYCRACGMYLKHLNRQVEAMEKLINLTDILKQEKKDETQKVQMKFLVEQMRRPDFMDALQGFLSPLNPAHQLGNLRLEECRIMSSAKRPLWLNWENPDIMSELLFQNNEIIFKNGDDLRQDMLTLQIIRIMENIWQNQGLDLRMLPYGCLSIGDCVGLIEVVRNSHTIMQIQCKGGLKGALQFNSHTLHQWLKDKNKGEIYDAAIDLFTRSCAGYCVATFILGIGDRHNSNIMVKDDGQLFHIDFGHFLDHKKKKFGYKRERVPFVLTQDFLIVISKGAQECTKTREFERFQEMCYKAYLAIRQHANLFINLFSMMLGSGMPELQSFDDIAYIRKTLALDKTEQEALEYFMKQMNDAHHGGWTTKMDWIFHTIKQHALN
T3 sequence (P27986 whole entry partner): as the sequence (P27986 whole entry partner) above

O=C1NC(=O)/C(=C/c2ccc(-c3ccc(F)cc3O)o2)S1 [AS-252424, reference compound]
IC50 [1]: 30 nM
effect on IgM secretion [2]: no significant effect

CC(C)n1c([C@H](C)Nc2ncnc(N)c2C#N)cc2cccc(-c3ccc(=O)n(C)c3)c2c1=O [IPI-3063]
IC50 [3]: 2.5 ± 1.2 nM
IC50 [4]: 1170 nM
IC50 [5]: 2190 nM
IC50 [6]: 419 ± 117 nM
